# Laboratory results: US9540648B2, “Therapeutic use of activators of zinc finger protein GL13” (Universität Leipzig, priority 2012, dated 2017)
# Legend:
# human hepatocytes = assay: Cyclopamine: accumulation of neutral lipids in cultured human hepatocytes (Nile red staining); format: cell-based; settings: 10 μM cyclopamine, 72 h
# Procedure: (§1) Cyclopamine (Sigma) was dissolved in DMSO (10 mM). Mouse and human hepatocytes were incubated for 72 h in the presence of 10 μM Cyclopamine. Control cultures were incubated with culture medium containing vehicle (0.1% DMSO).
# (§2) Fluorescent staining of neutral lipids in hepatocytes was performed using Nile red (Biomol). Hepatocytes were fixed with 4% buffered paraformaldehyde for 10 min. For Nile red staining, a 200 nM working solution in phosphate-buffered saline (PBS) was prepared from a 1 mM stock solution in DMSO and was added directly to the fixed cells. After 20 min of incubation at room temperature cells were washed in PBS. Nuclei were counterstained with DAPI (Sigma).
# (§3) Primary hepatocytes from SLC mice were isolated by collagenase perfusion of the liver. Cell suspension was carefully cleared from non-parenchymal cells by differential centrifugation. Finally, hepatocytes were suspended in Williams Medium E containing 10% fetal calf serum and further additions as described (Klingmüller et al., 2006), and were plated onto 6-well or 12-well plates precoated with collagen type I (Klingmüller et al., 2006; Gebhardt et al., 1982). After 4 h, serum-free medium was used throughout cultivation. Cryopreserved human hepatocytes were purchased from TebuBio (Offenbach, Germany). […]
# mouse hepatocytes = assay: Cyclopamine: accumulation of neutral lipids in cultured mouse hepatocytes (Nile red staining); format: cell-based; settings: 10 μM cyclopamine, 72 h
# Procedure: as §1, §2, §3
# C57Bl/6-N hepatocytes [1] = assay: Oil red O staining of neutral lipids in cultured hepatocytes transfected with GLI siRNA; format: cell-based, murine; settings: 72 h after siRNA transfection, FIG. 8
# Procedure: FIG. 8 Staining of neutral lipids by Oil red O in cultured hepatocytes transfected with a) mock, b) GLI1 siRNA, c) GLI2 siRNA and d) GLI3 siRNA determined after 72 h.
# (§4) Freshly isolated hepatocytes were seeded at a density of 100.000 cells per well of 12-well plates in normal culture medium containing 10% FCS. After 4 h, serum-free medium was used and chemically synthesized siRNAs ([…] for GLI2 and GLI3, 50 nM for GLI1) were transfected with Interferin from Peqlab (Erlangen) according to the manufacturer's instructions. Twenty-four hours after transfection, the medium was changed and fresh medium without siRNA was added. Changes in gene expression were analyzed by qRT PCR at different time points up to 72 h post-transfection as indicated in figure legends using primers as described above in Example 2 and the following additional primers: […]
# On the contrary neither GLI1 siRNA (FIG. 8b) nor GLI2 siRNA (FIG. 8c) was capable of mediating this effect.
# C57Bl/6-N hepatocytes [2] = assay: Silencing of GLI family members by siRNA in hepatocytes, gene expression by qRT-PCR; format: cell-based, murine; settings: for expression of lipogenic transcription factor Srebp1 (mRNA): FIG. 5
# From the text: Total RNA from hepatocytes, liver tissue and other organs was extracted using TRIzol (Peqlab, Erlangen). Total RNA from adipose tissue was extracted using the RNeasy Lipid Tissue mini Kit (Quiagen, Hilden). RNA was reverse transcribed using oligo(dt) primers and IM Promm II reverse transcriptase (Promega). The resulting cDNA samples were then quantified for each test gene using target gene-specific primers designed using the online tools Universal ProbeLibrary Probe-Finder software, Perl Primer and Primer 3.
# (§5) The levels of all mRNA transcripts were determined in duplicate by qRT-PCR using the Light Cycler® 2.0 Instrument and the LightCycler® FastStart DNA Master PLUS SYBR Green I (Roche). Using the standard curve method, the absolute quantitation of specific PCR products for each primer set was generated. For normalization, β-actin was amplified from each sample.
# To analyze the role of GLI family members in C57Bl/6-N hepatocytes on gene expression, murine hepatocytes were isolated and cultured for 72 h upon transfection with siRNA silencing either GLI1, GLI2 or GLI3.
# GLI1-, GLI2- and GLI3-specific siRNAs and respective scrambled control siRNAs were purchased from Invitrogen. The following double stranded siRNAs were used for inhibition of GLI1, GLI2 and GLI3:
# as §4
# [3] = system: murine C57BL/6-N hepatocytes; assay: Silencing of Sufu by siRNA in hepatocytes, gene expression by real time PCR; format: cell-based
# Procedure: as §5, §4
# Sufu is a known inhibitor of hedgehog signalling. The transfection of hepatocytes with siRNA and real time PCR was performed as described in Example 3. The following additional primers were used: […]
molecule,measurement,setting,value
"CC1=C2C[C@H]3[C@@H](CC=C4C[C@@H](O)CC[C@@]43C)[C@@H]2CC[C@]12O[C@@H]1C[C@H](C)CN[C@H]1[C@H]2C [cyclopamine, Cyclopamine]",steatosis (accumulation of neutral lipids),human hepatocytes,marked steatosis
same,steatosis (accumulation of neutral lipids),mouse hepatocytes,marked steatosis
"GLI1 siRNA: double stranded siRNA for inhibition of GLI1, SEQ ID No. 1 and 2, purchased from Invitrogen (chain 1 UGGAGAACCUUAGGCUGGAUCAGCU; chain 2 AGCUGAUCCAGCCUAAGGUUCUCCA; listed as RNA, chemistry not given here)",accumulation of fat droplets (Oil red O staining of neutral lipids),C57Bl/6-N hepatocytes [1],comparable phenotype as wild type hepatocytes
same,expression of lipogenic transcription factor Srebp1 (mRNA),C57Bl/6-N hepatocytes [2]; siRNA vs nonsense RNA control,not
"GLI2 siRNA: double stranded siRNA for inhibition of GLI2, SEQ ID No. 3 and 4, purchased from Invitrogen (chain 1 CCACAACCACAACGUUGCUCAGACA; chain 2 UGUCUGAGCAAGCUUGUGGUUGUGG; listed as RNA, chemistry not given here)",accumulation of fat droplets (Oil red O staining of neutral lipids),C57Bl/6-N hepatocytes [1],comparable phenotype as wild type hepatocytes
same,expression of lipogenic transcription factor Srebp1 (mRNA),C57Bl/6-N hepatocytes [2]; siRNA vs nonsense RNA control,not
"GLI3 siRNA: double stranded siRNA for inhibition of GLI3, SEQ ID No. 5 and 6, purchased from Invitrogen (chain 1 UAGCAAGGCCAUCUUGGUCUUCAGG; chain 2 CCUGAAGACCAAGAUGGCCUUGCUA; listed as RNA, chemistry not given here)",accumulation of fat droplets (Oil red O staining of neutral lipids),C57Bl/6-N hepatocytes [1],pronounced accumulation of fat droplets
same,IGF1 mRNA,"C57Bl/6-N hepatocytes [2]; Gli siRNA, FIG. 23A",downregulates
same,IGFBP1 mRNA,"C57Bl/6-N hepatocytes [2]; Gli siRNA, FIG. 23B",upregulated
same,expression of lipogenic transcription factor PPAR-γ (mRNA),"C57Bl/6-N hepatocytes [2]; siRNA vs nonsense RNA control, FIG. 4",significantly increased
same,expression of lipogenic transcription factor Srebp1 (mRNA),C57Bl/6-N hepatocytes [2]; siRNA vs nonsense RNA control,significantly increased
same,expression of lipogenic enzyme ELOVL fatty acid elongase 6 (Elovl6),"C57Bl/6-N hepatocytes [2]; siRNA vs nonsense RNA control, FIG. 6",increased expression
same,expression of lipogenic enzyme fatty acid synthase (Fasn),"C57Bl/6-N hepatocytes [2]; siRNA vs nonsense RNA control, FIG. 7",increased expression
"Sufu siRNA: double stranded siRNA inhibiting Sufu, SEQ ID No. 7 and 8; preferred GLI3 activating siRNA (chain 1 CCCUUGGACUAUGUUAGCAUGUACA; chain 2 UGUACAUGCUAACAUAGUCCAAGGG; listed as RNA, chemistry not given here)",expression of GLI2,[3]; FIG. 9,increased expression
same,expression of GLI3,[3]; FIG. 9,increased expression
same,expression of Indian hedgehog (IHH),[3]; FIG. 9,increased expression
same,silencing of Sufu,[3]; FIG. 9,Successful silencing
same,expression of GATA4,[3]; FIG. 10,increased expression
same,hepatocellular expression of PPAR-γ,[3]; FIG. 10,reduced
same,hepatocellular expression of Srebp1,[3]; FIG. 10,reduced
same,expression of Cyp17A1,[3]; FIG. 19,decreased expression
